Results published in patent publication US20250084060A1, “PRMT5 INHIBITORS AND METHODS OF TREATMENT” (HANGZHOU UNOGEN BIOTECH, LTD., priority 2022, published 2025).
pIC50: −log10 of the molar value.

Biological target: PRMT5 (Homo sapiens (Human), UniProt O14744)
Test: PRMT5 Chemiluminescent Assay
Type: biochemical
Conditions: PRMT5 chemiluminescent assay kit (BPS Bioscience), histone H4 peptide substrate, eight-point dose response
Procedure: The PRMT5 activity is measured by using “PRMT5 Chemiluminescent Assay Kit” from BPS Bioscience, Catalog Number 52002L as per the instructions of the manufacturer. Briefly, the PRMT5 enzyme is incubated with S-adenosylmethionine in a 96-well plate precoated with histone H4 peptide substrate. Next, a highly specific antibody that recognizes methylated R3 residue of Histone H4 is added followed by a horseradkish peroxidase-labeled (HRP-labeled) secondary antibody. Detection is done by the addition of the HRP substrate to produce chemiluminescence that can be measured quantitatively.
Compounds were serially diluted 3-fold and dosed from 10 uM down to 0 uM. Compounds were tested in duplicates to generate an eight-point dose response for the calculation of their IC50s.

Sequence of PRMT5 (O14744 2-637): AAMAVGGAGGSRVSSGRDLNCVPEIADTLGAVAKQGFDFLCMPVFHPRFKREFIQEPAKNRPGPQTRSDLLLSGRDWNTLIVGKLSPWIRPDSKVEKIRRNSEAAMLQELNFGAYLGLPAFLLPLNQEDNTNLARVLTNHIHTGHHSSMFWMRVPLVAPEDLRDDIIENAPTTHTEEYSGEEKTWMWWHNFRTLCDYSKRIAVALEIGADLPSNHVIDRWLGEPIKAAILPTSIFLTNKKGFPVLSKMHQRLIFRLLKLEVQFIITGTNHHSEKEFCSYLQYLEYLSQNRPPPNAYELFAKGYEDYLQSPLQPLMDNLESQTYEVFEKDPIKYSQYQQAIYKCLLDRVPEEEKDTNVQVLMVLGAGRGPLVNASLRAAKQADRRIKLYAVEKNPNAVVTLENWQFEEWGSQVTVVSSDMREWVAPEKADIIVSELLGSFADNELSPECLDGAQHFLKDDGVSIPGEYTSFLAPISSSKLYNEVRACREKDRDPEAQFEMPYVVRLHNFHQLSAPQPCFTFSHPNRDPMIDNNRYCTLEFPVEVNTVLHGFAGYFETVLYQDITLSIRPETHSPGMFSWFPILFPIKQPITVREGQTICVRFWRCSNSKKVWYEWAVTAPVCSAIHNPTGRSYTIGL
Sequence of PRMT5 (Q9BQA1 2-342 partner): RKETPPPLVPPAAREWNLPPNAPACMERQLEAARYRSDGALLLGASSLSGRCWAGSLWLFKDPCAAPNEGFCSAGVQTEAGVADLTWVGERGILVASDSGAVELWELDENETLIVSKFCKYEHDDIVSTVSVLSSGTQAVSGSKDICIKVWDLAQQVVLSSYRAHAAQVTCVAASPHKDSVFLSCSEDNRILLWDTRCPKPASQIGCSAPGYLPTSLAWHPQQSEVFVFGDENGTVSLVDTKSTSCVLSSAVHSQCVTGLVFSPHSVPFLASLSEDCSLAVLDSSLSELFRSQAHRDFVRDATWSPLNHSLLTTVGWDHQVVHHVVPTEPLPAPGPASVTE

Row | SMILES | pIC50
1 | CC(C)Cn1c(=O)n(CC(O)CN2CCc3ccccc3C2)c(=O)c2ccccc21 (stereo not shown) [Compound 98, 3-[3-(3,4-dihydro-1H-isoquinolin-2-yl)-2-hydroxy-propyl]-1-isobutyl-quinazoline-2,4-dione] | 6.75
2 | COc1ccc2c(c1)c(=O)n(C[C@H](O)CN1CCc3ccccc3C1)c(=O)n2CC1CC1 [Compound 87, 1-(cyclopropylmethyl)-3-[(2R)-3-(3,4-dihydro-1H-isoquinolin-2-yl)-2-hydroxy-propyl]-6-methoxy-quinazoline-2,4-dione] | 7.24
3 | O=c1[nH]c2ccc(Cl)cc2c(=O)n1C[C@H](O)CN1CCc2ccccc2C1 [Compound 67, 6-chloro-3-[(2R)-3-(3,4-dihydro-1H-isoquinolin-2-yl)-2-hydroxy-propyl]-1H-quinazoline-2,4-dione] | 6.67
4 | Cc1cccc2c1c(=O)n(C[C@H](O)CN1CCc3ccccc3C1)c(=O)n2CC1CC1 [Compound 85, 1-(cyclopropylmethyl)-3-[(2R)-3-(3,4-dihydro-1H-isoquinolin-2-yl)-2-hydroxy-propyl]-5-methyl-quinazoline-2,4-dione] | 7.54
5 | COc1ccc2c(=O)n(C[C@H](O)CN3CCc4ccccc4C3)c(=O)[nH]c2c1 [Compound 82, 3-[(2R)-3-(3,4-dihydro-1H-isoquinolin-2-yl)-2-hydroxy-propyl]-7-methoxy-1H-quinazoline-2,4-dione] | 7.18
6 | Cn1c(=O)n(CC(O)CN2CCc3ccccc3C2)c(=O)c2ccccc21 (stereo not shown) [Compound 63, 3-[3-(3,4-dihydro-1H-isoquinolin-2-yl)-2-hydroxy-propyl]-1-methyl-quinazoline-2,4-dione] | 6.16
7 | CC(C)Cn1c(=O)n(C[C@H](O)CN2CCc3ccccc3C2)c(=O)c2cc(F)ccc21 [Compound 72, 3-[(2R)-3-(3,4-dihydro-1H-isoquinolin-2-yl)-2-hydroxy-propyl]-6-fluoro-1-isobutyl-quinazoline-2,4-dione] | 7.15
8 | O=c1c2ccccc2n(CC2CCOCC2)c(=O)n1CC(O)CN1CCc2ccccc2C1 (stereo not shown) [Compound 105, 3-[3-(3,4-dihydro-1H-isoquinolin-2-yl)-2-hydroxy-propyl]-1-(tetrahydropyran-4-ylmethyl)quinazoline-2,4-dione] | 6.04
9 | O=c1c2ccccc2n(CC2CC(F)(F)C2)c(=O)n1C[C@H](O)CN1CCc2ccccc2C1 [Compound 95, 1-[(3,3-difluorocyclobutyl)methyl]-3-[(2R)-3-(3,4-dihydro-1H-isoquinolin-2-yl)-2-hydroxy-propyl]quinazoline-2,4-dione] | 6.79
10 | O=c1c2ccc(-c3cccnc3)cc2n(CC2CC2)c(=O)n1C[C@H](O)CN1CCc2ccccc2C1 [Compound 86, 1-(cyclopropylmethyl)-3-[(2R)-3-(3,4-dihydro-1H-isoquinolin-2-yl)-2-hydroxy-propyl]-7-(3-pyridyl)quinazoline-2,4-dione] | 7.46
11 | Cc1ccc2c(c1)c(=O)n(C[C@H](O)CN1CCc3ccccc3C1)c(=O)n2CC1CC1 [Compound 88, 1-(cyclopropylmethyl)-3-[(2R)-3-(3,4-dihydro-1H-isoquinolin-2-yl)-2-hydroxy-propyl]-6-methyl-quinazoline-2,4-dione] | 7.68
12 | O=c1c2ccccc2n(CCCC(F)(F)F)c(=O)n1C[C@H](O)CN1CCc2ccccc2C1 [Compound 93, 3-[(2R)-3-(3,4-dihydro-1H-isoquinolin-2-yl)-2-hydroxy-propyl]-1-(4,4,4-trifluorobutyl)quinazoline-2,4-dione] | 6.91
13 | O=c1c2c(F)cccc2n(CC2CC2)c(=O)n1C[C@H](O)CN1CCc2ccccc2C1 [Compound 89, 1-(cyclopropylmethyl)-3-[(2R)-3-(3,4-dihydro-1H-isoquinolin-2-yl)-2-hydroxy-propyl]-5-fluoro-quinazoline-2,4-dione] | 7.39
14 | O=c1[nH]c2cc(Br)ccc2c(=O)n1C[C@H](O)CN1CCc2ccccc2C1 [Compound 75, 7-bromo-3-[(2R)-3-(3,4-dihydro-1H-isoquinolin-2-yl)-2-hydroxy-propyl]-1H-quinazoline-2,4-dione] | 7.62
15 | N#Cc1ccc(Cn2c(=O)n(CC(O)CN3CCc4ccccc4C3)c(=O)c3ccccc32)cc1 (stereo not shown) [Compound 100, 4-[[3-[3-(3,4-dihydro-1H-isoquinolin-2-yl)-2-hydroxy-propyl]-2,4-dioxo-quinazolin-1-yl]methyl]benzonitrile] | 6.11
16 | O=c1c2ccccc2n(CC2CC2(F)F)c(=O)n1C[C@H](O)CN1CCc2ccccc2C1 (stereo partly drawn) [Compound 90, 1-[(2,2-difluorocyclopropyl)methyl]-3-[(2R)-3-(3,4-dihydro-1H-isoquinolin-2-yl)-2-hydroxy-propyl]quinazoline-2,4-dione] | 6.92
17 | O=c1[nH]c2ccccc2c(=O)n1C[C@H](O)CN1CCc2ccccc2C1 [Compound 64, 3-[(2R)-3-(3,4-dihydro-1H-isoquinolin-2-yl)-2-hydroxy-propyl]-1H-quinazoline-2,4-dione] | 6.44

Row | SMILES | pIC50
18 | COc1ccc(Cn2c(=O)c3ccccc3n(CC(O)CN3CCc4ccccc4C3)c2=O)cc1 (stereo not shown) [Compound 97, 1-[3-(3,4-dihydro-1H-isoquinolin-2-yl)-2-hydroxy-propyl]-3-[(4-methoxyphenyl)methyl]quinazoline-2,4-dione] | 5.03
19 | CC(C)Cn1c(=O)n(C[C@H](O)CN2CCc3ccccc3C2)c(=O)c2cc(Br)ccc21 [Compound 71, 6-bromo-3-[(2R)-3-(3,4-dihydro-1H-isoquinolin-2-yl)-2-hydroxy-propyl]-1-isobutyl-quinazoline-2,4-dione] | 6.80
20 | O=c1c2ccccc2n(Cc2ccc(Cl)cc2)c(=O)n1C[C@H](O)CN1CCc2ccccc2C1 (stereo in doubt) [Compound 96, 1-[(4-chlorophenyl)methyl]-3-[3-(3,4-dihydro-1H-isoquinolin-2-yl)-2-hydroxy-propyl]quinazoline-2,4-dione] | 5.97
21 | COc1ccc2c(=O)n(C[C@H](O)CN3CCc4ccccc4C3)c(=O)n(CC3CC3)c2c1 [Compound 84, 1-(cyclopropylmethyl)-3-[(2R)-3-(3,4-dihydro-1H-isoquinolin-2-yl)-2-hydroxy-propyl]-7-methoxy-quinazoline-2,4-dione] | 7.46
22 | CC(C)Cn1c(=O)n(C[C@H](O)CN2CCc3ccccc3C2)c(=O)c2ccc(Cl)cc21 [Compound 73, 7-chloro-3-[(2R)-3-(3,4-dihydro-1H-isoquinolin-2-yl)-2-hydroxy-propyl]-1-isobutyl-quinazoline-2,4-dione] | 7.85
23 | O=c1[nH]c2ccccc2c(=O)n1CC(O)CN1CCc2ccccc2C1 (stereo not shown) [Compound 61, 3-[3-(3,4-dihydro-1H-isoquinolin-2-yl)-2-hydroxy-propyl]-1H-quinazoline-2,4-dione] | 6.06
24 | CC(C)Cn1c(=O)n(C[C@H](O)CN2CCc3ccccc3C2)c(=O)c2cc(-c3ccc(F)cc3)ccc21 [Compound 76, 3-[(2R)-3-(3,4-dihydro-1H-isoquinolin-2-yl)-2-hydroxy-propyl]-6-(4-fluorophenyl)-1-isobutyl-quinazoline-2,4-dione] | 7.24
25 | CC(C)Cn1c(=O)n(C[C@H](O)CN2CCc3ccccc3C2)c(=O)c2cc(Cl)ccc21 [Compound 69, 6-chloro-3-[(2R)-3-(3,4-dihydro-1H-isoquinolin-2-yl)-2-hydroxy-propyl]-1-isobutyl-quinazoline-2,4-dione] | 6.90
26 | CC(C)Cn1c(=O)n(C[C@@H](O)CN2CCc3ccccc3C2)c(=O)c2ccccc21 [Compound 101, 3-[(2S)-3-(3,4-dihydro-1H-isoquinolin-2-yl)-2-hydroxy-propyl]-1-isobutyl-quinazoline-2,4-dione] | 5.35
27 | O=c1[nH]c2ccccc2c(=O)n1C[C@@H](O)CN1CCc2ccccc2C1 [Compound 62, 3-[(2S)-3-(3,4-dihydro-1H-isoquinolin-2-yl)-2-hydroxy-propyl]-1H-quinazoline-2,4-dione] | 4.87
28 | O=c1c2cc(F)ccc2n(CC2CC2)c(=O)n1C[C@H](O)CN1CCc2ccccc2C1 [Compound 77, 1-(cyclopropylmethyl)-3-[(2R)-3-(3,4-dihydro-1H-isoquinolin-2-yl)-2-hydroxy-propyl]-6-fluoro-quinazoline-2,4-dione] | 7.20
29 | COc1ccc2[nH]c(=O)n(C[C@H](O)CN3CCc4ccccc4C3)c(=O)c2c1 [Compound 81, 3-[(2R)-3-(3,4-dihydro-1H-isoquinolin-2-yl)-2-hydroxy-propyl]-6-methoxy-1H-quinazoline-2,4-dione] | 6.80
30 | O=c1[nH]c2ccc(F)cc2c(=O)n1C[C@H](O)CN1CCc2ccccc2C1 [Compound 66, 3-[(2R)-3-(3,4-dihydro-1H-isoquinolin-2-yl)-2-hydroxy-propyl]-6-fluoro-1H-quinazoline-2,4-dione] | 6.75
31 | COCCn1c(=O)n(CC(O)CN2CCc3ccccc3C2)c(=O)c2ccccc21 (stereo not shown) [Compound 65, 3-[3-(3,4-dihydro-1H-isoquinolin-2-yl)-2-hydroxy-propyl]-1-(2-methoxyethyl)quinazoline-2,4-dione] | 6.29
32 | CC(C)Cn1c(=O)n(C[C@H](O)CN2CCc3ccccc3C2)c(=O)c2ccccc21 [Compound 102, 3-[(2R)-3-(3,4-dihydro-1H-isoquinolin-2-yl)-2-hydroxy-propyl]-1-isobutyl-quinazoline-2,4-dione] | 7.15
33 | O=c1[nH]c2cc(Cl)ccc2c(=O)n1C[C@H](O)CN1CCc2ccccc2C1 [Compound 68, 7-chloro-3-[(2R)-3-(3,4-dihydro-1H-isoquinolin-2-yl)-2-hydroxy-propyl]-1H-quinazoline-2,4-dione] | 7.48
34 | O=c1[nH]c2ccc(O)cc2c(=O)n1C[C@H](O)CN1CCc2ccccc2C1 [Compound 83, 3-[(2R)-3-(3,4-dihydro-1H-isoquinolin-2-yl)-2-hydroxy-propyl]-6-hydroxy-1H-quinazoline-2,4-dione] | 6.08
